Literature values, collected in patent US12194065B2, “Methods and compositions to enhance metabolic detoxification systems” (Nature's Sunshine Products, Inc., priority 2017, dated 2025).

Key:
[1] = acute supplementation of 6 g, over 120 minutes, healthy individuals with normal plasma ADMA
[2] = biological target: eNOS (Homo sapiens, UniProt P29474)
[3] = once produced through NOS

Chain of eNOS (P29474 2-1203): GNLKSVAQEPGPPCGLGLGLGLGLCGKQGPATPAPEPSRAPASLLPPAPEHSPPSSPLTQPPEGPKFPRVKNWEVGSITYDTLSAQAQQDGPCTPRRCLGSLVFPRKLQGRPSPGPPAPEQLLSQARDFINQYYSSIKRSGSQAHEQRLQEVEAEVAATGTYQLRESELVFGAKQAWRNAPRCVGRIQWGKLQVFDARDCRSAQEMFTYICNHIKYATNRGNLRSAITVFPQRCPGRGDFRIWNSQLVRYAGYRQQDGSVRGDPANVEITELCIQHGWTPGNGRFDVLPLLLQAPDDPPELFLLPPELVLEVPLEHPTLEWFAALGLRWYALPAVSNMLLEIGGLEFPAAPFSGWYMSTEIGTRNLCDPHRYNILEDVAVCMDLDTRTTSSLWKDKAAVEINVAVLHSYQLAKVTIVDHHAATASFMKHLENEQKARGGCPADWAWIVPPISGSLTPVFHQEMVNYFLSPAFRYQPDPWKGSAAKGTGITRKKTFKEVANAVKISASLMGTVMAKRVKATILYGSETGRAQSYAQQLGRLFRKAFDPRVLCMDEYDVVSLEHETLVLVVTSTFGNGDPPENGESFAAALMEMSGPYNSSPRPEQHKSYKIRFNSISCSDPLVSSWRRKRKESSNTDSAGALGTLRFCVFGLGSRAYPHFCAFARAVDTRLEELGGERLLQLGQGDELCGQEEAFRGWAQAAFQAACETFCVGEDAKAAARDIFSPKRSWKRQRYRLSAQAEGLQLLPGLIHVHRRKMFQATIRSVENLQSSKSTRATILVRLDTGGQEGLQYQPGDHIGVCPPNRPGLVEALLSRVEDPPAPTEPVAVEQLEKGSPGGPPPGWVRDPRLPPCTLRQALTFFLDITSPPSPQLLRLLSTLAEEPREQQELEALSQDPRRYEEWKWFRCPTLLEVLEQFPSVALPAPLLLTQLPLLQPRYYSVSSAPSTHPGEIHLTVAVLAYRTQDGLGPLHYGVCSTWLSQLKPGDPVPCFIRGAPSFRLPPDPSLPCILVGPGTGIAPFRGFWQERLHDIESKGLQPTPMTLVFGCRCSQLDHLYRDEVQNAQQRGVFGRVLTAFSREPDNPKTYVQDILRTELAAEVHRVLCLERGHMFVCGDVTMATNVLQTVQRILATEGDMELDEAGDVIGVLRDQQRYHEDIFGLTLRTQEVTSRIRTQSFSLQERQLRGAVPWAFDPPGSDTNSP

SMILES	plasma concentration of NOx [1]	concentration saturating eNOS [2]	half-life [3]
N=C(N)NCCC[C@H](N)C(=O)O [L-arginine]	does not increase	approximately 3 μmol arginine/L	
[N]=O [NO, Nitric oxide]			approximately 1 second
